From PubChem BioAssay AID1963836 (Molecular Pharmacology Branch, DTP, NCI, 2024)

Test system: 857933-349-R-J2-PDC complex spheroid viability
Experiment: Anticancer human tumor 857933-349-R-J2-PDC patient-derived colon adenocarcinoma cell line growth inhibition [POLQ]
Conditions: for IC50: curve of first compound; for viability, T/C: stronger effect = lower value
Procedure, shortened: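 Complex spheroid viability model combining PDC tumour cells with endothelial (HUVEC) and MSC stromal cells. Novobiocin, ART-558 or RP6685 were tested singly and in combination with standard and investigational anticancer drugs. Each was titrated in half-log steps from near clinical Cmax, or from 10 microM where Cmax was unknown.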

[1] = second compound 0.0316 µM, first compound 0.0316 µM
[2] = second compound 0.0316 µM, first compound 0.1 µM
[3] = second compound 0.0316 µM, first compound 0.316 µM
[4] = second compound 0.0316 µM, first compound 1 µM
[5] = second compound 0.0316 µM, first compound 3.16 µM
[6] = second compound 0.0316 µM, first compound 10 µM
[7] = second compound 0.1 µM, first compound 0.0316 µM
[8] = second compound 0.1 µM, first compound 0.1 µM
[9] = second compound 0.1 µM, first compound 0.316 µM
[10] = second compound 0.1 µM, first compound 1 µM
[11] = second compound 0.1 µM, first compound 3.16 µM
[12] = second compound 0.1 µM, first compound 10 µM
[13] = second compound 0.316 µM, first compound 0.0316 µM
[14] = second compound 0.316 µM, first compound 0.1 µM
[15] = second compound 0.316 µM, first compound 0.316 µM
[16] = second compound 0.316 µM, first compound 1 µM
[17] = second compound 0.316 µM, first compound 3.16 µM
[18] = second compound 0.316 µM, first compound 10 µM
[19] = second compound 1 µM, first compound 0.0316 µM
[20] = second compound 1 µM, first compound 0.1 µM
[21] = second compound 1 µM, first compound 0.316 µM
[22] = second compound 1 µM, first compound 1 µM
[23] = second compound 1 µM, first compound 3.16 µM
[24] = second compound 1 µM, first compound 10 µM
[25] = second compound 3.16 µM, first compound 0.0316 µM
[26] = second compound 3.16 µM, first compound 0.1 µM
[27] = second compound 3.16 µM, first compound 0.316 µM
[28] = second compound 3.16 µM, first compound 1 µM
[29] = second compound 3.16 µM, first compound 3.16 µM
[30] = second compound 3.16 µM, first compound 10 µM
[31] = second compound 10 µM, first compound 0.0316 µM
[32] = second compound 10 µM, first compound 0.1 µM
[33] = second compound 10 µM, first compound 0.316 µM
[34] = second compound 10 µM, first compound 1 µM
[35] = second compound 10 µM, first compound 3.16 µM
[36] = second compound 10 µM, first compound 10 µM
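Further: spheroids exposed to compounds for seven days before readout.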

C#Cc1c(F)ccc2cc(O)cc(-c3ncc4c(N5CC6CCC(C5)N6)nc(OCC56CCCN5CC(F)C6)nc4c3F)c12 (stereo not given) + Nc1ccc(C#CCN(C(=O)Cc2ncc(C(F)(F)F)cc2C(F)(F)F)c2ccc(F)cc2)nn1
IC50 (second compound 0.0316 µM): > 10 µM
IC50 (second compound 0.1 µM): > 10 µM
IC50 (second compound 0.316 µM): > 10 µM
IC50 (second compound 1 µM): > 10 µM
IC50 (second compound 3.16 µM): > 10 µM
IC50 (second compound 10 µM): > 10 µM
viability, T/C [1]: 84.4%
viability, T/C [2]: 99.5%
viability, T/C [3]: 82.7%
viability, T/C [4]: 80.8%
viability, T/C [5]: 78.2%
viability, T/C [6]: 73.1%
viability, T/C [7]: 101%
viability, T/C [8]: 101%
viability, T/C [9]: 86.8%
viability, T/C [10]: 87.1%
viability, T/C [11]: 84%
viability, T/C [12]: 80.7%
viability, T/C [13]: 95.3%
viability, T/C [14]: 92.4%
viability, T/C [15]: 79%
viability, T/C [16]: 73%
viability, T/C [17]: 93.8%
viability, T/C [18]: 75.5%
viability, T/C [19]: 104%
viability, T/C [20]: 100%
viability, T/C [21]: 79.5%
viability, T/C [22]: 79.7%
viability, T/C [23]: 86.8%
viability, T/C [24]: 70.6%
viability, T/C [25]: 101%
viability, T/C [26]: 86.8%
viability, T/C [27]: 82.7%
viability, T/C [28]: 76.7%
viability, T/C [29]: 107%
viability, T/C [30]: 68.6%
viability, T/C [31]: 87%
viability, T/C [32]: 76.8%
viability, T/C [33]: 87%
viability, T/C [34]: 73.9%
viability, T/C [35]: 76.3%
viability, T/C [36]: 69%

CC(C)n1c(=O)n(C)c2cnc3cc(F)c(-c4ccc(OCCCN5CCCCC5)nc4)cc3c21 + Nc1ccc(C#CCN(C(=O)Cc2ncc(C(F)(F)F)cc2C(F)(F)F)c2ccc(F)cc2)nn1
IC50 (second compound 0.0316 µM): > 10 µM
IC50 (second compound 0.1 µM): > 10 µM
IC50 (second compound 0.316 µM): > 10 µM
IC50 (second compound 1 µM): > 10 µM
IC50 (second compound 3.16 µM): > 10 µM
IC50 (second compound 10 µM): > 10 µM
viability, T/C [1]: 88.3%
viability, T/C [2]: 89%
viability, T/C [3]: 103%
viability, T/C [4]: 106%
viability, T/C [5]: 93.7%
viability, T/C [6]: 98.8%
viability, T/C [7]: 99.5%
viability, T/C [8]: 109%
viability, T/C [9]: 111%
viability, T/C [10]: 116%
viability, T/C [11]: 118%
viability, T/C [12]: 100%
viability, T/C [13]: 108%
viability, T/C [14]: 106%
viability, T/C [15]: 103%
viability, T/C [16]: 98.7%
viability, T/C [17]: 105%
viability, T/C [18]: 98%
viability, T/C [19]: 107%
viability, T/C [20]: 95.9%
viability, T/C [21]: 107%
viability, T/C [22]: 114%
viability, T/C [23]: 95.2%
viability, T/C [24]: 84.7%
viability, T/C [25]: 91.7%
viability, T/C [26]: 99.9%
viability, T/C [27]: 103%
viability, T/C [28]: 115%
viability, T/C [29]: 111%
viability, T/C [30]: 91.5%
viability, T/C [31]: 86.4%
viability, T/C [32]: 102%
viability, T/C [33]: 114%
viability, T/C [34]: 89.3%
viability, T/C [35]: 98.1%
viability, T/C [36]: 92.6%

CCc1cc2c(N3CCc4c(cc(Cn5ccnc5)cc4-c4cn(C)nc4C(F)(F)F)C3=O)cc(C)nc2c(OC)n1 + Nc1ccc(C#CCN(C(=O)Cc2ncc(C(F)(F)F)cc2C(F)(F)F)c2ccc(F)cc2)nn1
IC50 (second compound 0.0316 µM): > 10 µM
IC50 (second compound 0.1 µM): > 10 µM
IC50 (second compound 0.316 µM): > 10 µM
IC50 (second compound 1 µM): > 10 µM
IC50 (second compound 3.16 µM): > 10 µM
IC50 (second compound 10 µM): > 10 µM
viability, T/C [1]: 94.9%
viability, T/C [2]: 92.8%
viability, T/C [3]: 80.3%
viability, T/C [4]: 79.8%
viability, T/C [5]: 67.4%
viability, T/C [6]: 62.8%
viability, T/C [7]: 92%
viability, T/C [8]: 101%
viability, T/C [9]: 76.2%
viability, T/C [10]: 73.5%
viability, T/C [11]: 77.7%
viability, T/C [12]: 55.1%
viability, T/C [13]: 89%
viability, T/C [14]: 86.8%
viability, T/C [15]: 86.5%
viability, T/C [16]: 81%
viability, T/C [17]: 65.7%
viability, T/C [18]: 57.1%
viability, T/C [19]: 95.9%
viability, T/C [20]: 96.9%
viability, T/C [21]: 86.8%
viability, T/C [22]: 78.8%
viability, T/C [23]: 75.3%
viability, T/C [24]: 51.4%
viability, T/C [25]: 87.8%
viability, T/C [26]: 87%
viability, T/C [27]: 97.7%
viability, T/C [28]: 69.3%
viability, T/C [29]: 64.3%
viability, T/C [30]: 59.5%
viability, T/C [31]: 90.2%
viability, T/C [32]: 78.5%
viability, T/C [33]: 75%
viability, T/C [34]: 65.5%
viability, T/C [35]: 53.5%
viability, T/C [36]: 53.4%

COc1cc2cc(C(=O)CCC(=O)O)sc2cc1OC + Nc1ccc(C#CCN(C(=O)Cc2ncc(C(F)(F)F)cc2C(F)(F)F)c2ccc(F)cc2)nn1
IC50 (second compound 0.0316 µM): > 10 µM
IC50 (second compound 0.1 µM): > 10 µM
IC50 (second compound 0.316 µM): > 10 µM
IC50 (second compound 1 µM): > 10 µM
IC50 (second compound 3.16 µM): > 10 µM
IC50 (second compound 10 µM): > 10 µM
viability, T/C [1]: 103%
viability, T/C [2]: 110%
viability, T/C [3]: 108%
viability, T/C [4]: 111%
viability, T/C [5]: 100%
viability, T/C [6]: 104%
viability, T/C [7]: 100%
viability, T/C [8]: 106%
viability, T/C [9]: 101%
viability, T/C [10]: 110%
viability, T/C [11]: 108%
viability, T/C [12]: 97.5%
viability, T/C [13]: 96.5%
viability, T/C [14]: 97.3%
viability, T/C [15]: 98.2%
viability, T/C [16]: 92.4%
viability, T/C [17]: 106%
viability, T/C [18]: 96%
viability, T/C [19]: 103%
viability, T/C [20]: 93.3%
viability, T/C [21]: 97.5%
viability, T/C [22]: 109%
viability, T/C [23]: 110%
viability, T/C [24]: 89.1%
viability, T/C [25]: 102%
viability, T/C [26]: 98.7%
viability, T/C [27]: 90.7%
viability, T/C [28]: 89.7%
viability, T/C [29]: 104%
viability, T/C [30]: 103%
viability, T/C [31]: 93.7%
viability, T/C [32]: 78.3%
viability, T/C [33]: 98.9%
viability, T/C [34]: 97.6%
viability, T/C [35]: 108%
viability, T/C [36]: 78.4%

O=C(Nc1ccc(O)c(NS(=O)(=O)c2ccc(F)cc2)c1)c1ccc(-c2ccccc2)cc1 + Nc1ccc(C#CCN(C(=O)Cc2ncc(C(F)(F)F)cc2C(F)(F)F)c2ccc(F)cc2)nn1
IC50 (second compound 0.0316 µM): > 10 µM
IC50 (second compound 0.1 µM): > 10 µM
IC50 (second compound 0.316 µM): > 10 µM
IC50 (second compound 1 µM): > 10 µM
IC50 (second compound 3.16 µM): > 10 µM
IC50 (second compound 10 µM): > 10 µM
viability, T/C [1]: 95.1%
viability, T/C [2]: 108%
viability, T/C [3]: 103%
viability, T/C [4]: 111%
viability, T/C [5]: 110%
viability, T/C [6]: 92%
viability, T/C [7]: 90.1%
viability, T/C [8]: 96.6%
viability, T/C [9]: 97%
viability, T/C [10]: 103%
viability, T/C [11]: 119%
viability, T/C [12]: 103%
viability, T/C [13]: 84.2%
viability, T/C [14]: 98.8%
viability, T/C [15]: 91.2%
viability, T/C [16]: 102%
viability, T/C [17]: 110%
viability, T/C [18]: 98.8%
viability, T/C [19]: 90.7%
viability, T/C [20]: 106%
viability, T/C [21]: 101%
viability, T/C [22]: 97.9%
viability, T/C [23]: 89.7%
viability, T/C [24]: 94.2%
viability, T/C [25]: 97%
viability, T/C [26]: 96.2%
viability, T/C [27]: 104%
viability, T/C [28]: 85.1%
viability, T/C [29]: 104%
viability, T/C [30]: 99.7%
viability, T/C [31]: 103%
viability, T/C [32]: 105%
viability, T/C [33]: 98.6%
viability, T/C [34]: 107%
viability, T/C [35]: 90.8%
viability, T/C [36]: 113%
